Laboratory results as given in US11306361B2, “Pathology prognosis method” (CENTRE NATIONAL DE LA RECHERCHE SCIENTIFIQUE, priority 2015, dated 2022).
Numbered stars: 1 amine (or outer) side, 2 acyl side, 3 side chain; on linkers, the order of the positions; unused ones are H or OH. Bridge positions count the residues as written; N and C are the ends. Square brackets hold non-standard residues; d marks the D form. Peptide text beside a SMILES is read from it. I, II: the chains in the order shown. Actinocin(9to1) = Cc1c2oc3c(C)ccc(C(=O)[*:1])c3nc-2c(C(=O)[*:2])c(N)c1=O; NMeV = CN[C@H](C(=O)O)C(C)C; Sar = CNCC(=O)O

Legend:
[1] = test system: MEFs transformed with the mouse T antigen; experiment: Apoptosis and PARP cleavage in cell lines immortalized by the T antigen; format: cell-based; details: FIG. 15; for induced apoptosis as a function of Cyclin D1 level: T antigen immortalized cells, wild vs Ntag/Ntag vs −/−; for cleavage of the PARP: cells with low Cyclin D1 level
Text: (§1) The antibodies used are the following: anti-HA (HA.11 Clone 16B12, Eurogentec or Anti-HA EPITOPE TAG-600-401-384, Tebu-bio or Hemagglutinin (HA) Rabbit Polyclonal Antibody, Life Technologies), anti-Cyclin D1 (sc-450, Santa Cruz or MS-210-PABX (AB1), Fisher Scientific or RB-010-PABX (AB3), Fisher scientific), anti-RB total (sc-74562, Santa Cruz), anti-Phospho-RB (Ser780) (9307, Cell signaling), anti-Actin (ab6276, Abcam), anti-Tubulin (T9026, Sigma-Aldrich), anti-Ras (BD610002, BD Biosciences), anti-FLAG (F7425, Sigma-Aldrich), anti-cleaved PARP (ab32064, Abcam), anti-VASA (ab13840, Abcam), anti-Thyrosine Hydroxylase (MAB318, Merck Millipore). The secondary antibodies used are coupled with peroxidase (signaling), and the detection of the complexes is done using the enhanced chemiluminescence detection kit (Millipore).
(§2) Cell death is induced by exposure to actinomycin D A9415, Sigma, for 6 h, 5-Fluoro uracil (Fluorouracil Winthrop, Sanofi-Aventis) for 24 h, or ethanol (20821.330, VWR) for 6 h and inhibited by exposure to Q-VD-Oph (SML0063, Sigma).
(§3) The cells are washed twice in PBS 1×, unstuck with trypsin and reacted in a marking buffer (10 mM of Hepes pH=7.4, sodium chloride 150 mM, KCl 5 mM, MgCl2 1 mM, CaCl2 1.8 mM). Then the cells were marked with […]-fluorescein isothiocyanate (BD Biosciences) according to the manufacturer's instructions in 0.5 μg/mL of propidium iodide (PI; Sigma-Aldrich P-4170). After 15 min. of incubation in the dark, the cells are analyzed by flux cytometry. The living cells are Annexin V and PI double negatives and the apoptotic cells are positive for Annexin V and negative for PI.

[2] = test system: MEF cells transformed with RAS-G12V/DNP53 and MMTV-ErbB2 tumor cells; experiment: Measurement of cell death (apoptosis) in transformed tumor cells; format: cell-based, mouse; details: for apoptosis rates versus quantity of Cyclin D1: MEFs transformed with P53 negative dominant and RAS G12V, null, low or high Cyclin D1, FIG. 23
Procedure: as §2, §3

[3] = test system: RAS or ErbB2 cancer cells; experiment: Western blot of cleaved PARP in tumor cells; format: cell-based, mouse; details: after treatment with 5-FU; limited by Cyclin D1; FIG. 27
Text: as §1

substantia nigra = experiment: Methamphetamine model of dopaminergic neurons in mice
Procedure: The methamphetamine was dissolved in a saline solution at 0.9% (weight/volume) sodium chloride, and injected at a rate of 10 mL/Kg. Several doses of methamphetamine (3 doses of 5 mg/kg at 3 h intervals) were injected intraperitoneally, the first dose being injected at noon. The control mice were treated with the saline solution alone. The mice were sacrificed 24 hours after treatment, for the postmortem analyses.
The mouse organs were washed with PBS 1× at 37° C. and lysed in HTRF buffer (Tris 10 mM, EDTA 1 mM, 0.05% NP-40) using a cell homogenizer. After centrifugation at 16000 g for 5 min., the samples were normalized by adjusting the total quantity of DNA (nanodrop, Thermo Scientific) at 500 ng/mL.

male germinal cells = experiment: Methoxyacetic acid treatment, mouse testicles; format: in vivo
Procedure: The mice were sacrificed 14 hours after treatment, for the postmortem analyses.
as §1

dopaminergic neurons = experiment: 6-OHDA lesions, survival of mice; format: in vivo, mouse; details: FIG. 9
Procedure: The mice were anesthetized with a mixture of ketamine (Imalgene 500, 50 mg/mL, Merial), 0.9% saline solution (weight/vol) and xylazine (Rompun 2%, […], Bayer) (2:2:1, i.p., 0.1 mL/30 g) and mounted on a stereotaxic apparatus. The 6-OHDA-HCl (Sigma) was dissolved in 0.02% ascorbic acid in a saline solution at a concentration of 3 μg of 6-OHDA/μL. Each mouse received two unilateral injections of 6-OHDA (2 μL/injection) in the right dorsal striatum, according to the following coordinates (in mm): anteroposterior +1, mediolateral −2.1, dorsal ventral −3.1 and anteroposterior +0.3, mediolateral −2.3, and dorsal ventral −3.1. The animals are then released and received a daily injection of glucose solution (50 mg/mL, subcutaneous).

[4] = mice expressing N-terminal tagged Cyclin D1 relative to wild mice, intraperitoneal injection

Cc1c2oc3c(C)ccc(C(=O)N[C@@H]4C(=O)N[C@H](C(C)C)C(=O)N5CCC[C@H]5C(=O)N(C)CC(=O)N(C)[C@@H](C(C)C)C(=O)O[C@@H]4C)c3nc-2c(C(=O)N[C@@H]2C(=O)N[C@H](C(C)C)C(=O)N3CCC[C@H]3C(=O)N(C)CC(=O)N(C)[C@@H](C(C)C)C(=O)O[C@@H]2C)c(N)c1=O [actinomycin D] (I: T[dV]P[Sar][NMeV] / II: T[dV]P[Sar][NMeV]; ester I:1-I:C, II:1-II:C; linker I:N-II:N via Actinocin(9to1))
induced apoptosis as a function of Cyclin D1 level [1]: increases with a low Cyclin D1 level | cleavage of the PARP [1]: strong cleavage of the PARP | apoptosis rates versus quantity of Cyclin D1 [2]: the quantity of Cyclin D1 correlates with the decrease in the apoptosis rates

CC(C)[C@H](NC(=O)c1ccc2ccccc2n1)C(=O)N[C@@H](CC(=O)O)C(=O)COc1c(F)cccc1F [Q-VD-Oph]
apoptosis induced by 5-FU or ethanol ([2]; RAS and ErbB2 lines, Q-VD-Oph 20 μM, FIGS. 24 and 25): shunts the apoptosis

O=c1[nH]cc(F)c(=O)[nH]1 [5-FU, 5-fluorouracil]
apoptosis rates versus quantity of Cyclin D1 [2]: the quantity of Cyclin D1 correlates with the decrease in the apoptosis rates | levels of cleaved PARP [3]: increase

CN[C@@H](C)Cc1ccccc1 [methamphetamine]
quantity of Cyclin D1 in the substantia nigra (HTRF) (substantia nigra; CCND1Ntag/Ntag mice, 24 hours after intraperitoneal injection, FIG. 8): decreases | cerebral lesions (substantia nigra; animals expressing little Cyclin D1, intraperitoneal 5 mg/kg): increase in cerebral lesions

COCC(=O)O [MAA, methoxyacetic acid]
Cyclin D1 in testicles (HTRF) (male germinal cells; 14 hours after intraperitoneal injection at 150 mg/kg, FIG. 13): decrease | cleaved PARP rate in testicles (male germinal cells; [4]): increase | germinal cell marker (Vasa) in testicles (male germinal cells; [4]): massive loss

CCO [ethanol]
induced apoptosis as a function of Cyclin D1 level [1]: increases with a low Cyclin D1 level | cleavage of the PARP [1]: strong cleavage of the PARP

NCCc1cc(O)c(O)cc1O [6-OHDA, 6-hydroxy dopamine]
survival of wild mice (dopaminergic neurons; CCND1+/+ mice, intrastriatal injection): survive treatment | survival of mice expressing N-terminal tagged Cyclin D1 (dopaminergic neurons; mice expressing little Cyclin D1, intrastriatal injection): die several days after
